# Measurements as given in ChEMBL document CHEMBL3046339, “Insecticidal activity of Maytenus species (Celastraceae) nortriterpene quinone methides against codling moth, Cydia pomonella (L.) (Lepidoptera: tortricidae)” (2000).
# Tests used:
# Assay type in all cases: functional
# [1] = test system: Cydia pomonella; assay: Antifeedant activity against Cydia pomonella (codling moth) at 2 mg/kg diet topically measured after 10 days of continuous exposure (reference value: 6.7 +/- 6.7%)
# [2] = test system: Cydia pomonella; assay: Insecticidal activity against Cydia pomonella (codling moth) assessed as mortality at 12 mg/kg diet topically measured after 10 days of continuous exposure (reference value: 3.3 +/- 3.3%); details: topical, 240 h
# [3] = test system: Cydia pomonella; assay: Antifeedant activity against Cydia pomonella (codling moth) at 6 mg/kg diet topically measured after 5 days of continuous exposure (reference value: 6.7 +/- 6.7%)
# [4] = test system: Cydia pomonella; assay: Insecticidal activity against Cydia pomonella (codling moth) assessed as mortality at 20 mg/kg diet topically measured after 10 days of continuous exposure (reference value: 3.3 +/- 3.3%); details: topical, 240 h
# [5] = test system: Cydia pomonella; assay: Insecticidal activity against Cydia pomonella (codling moth) at 2 mg/kg assessed as growth regulation measured as number of head capsules of larvae after 5 days of continuous exposure (reference value: 0.2 +/- 0.2%)
# [6] = test system: Cydia pomonella; assay: Insecticidal activity against Cydia pomonella (codling moth) assessed as mortality at 20 mg/kg diet topically measured after 5 days of continuous exposure (reference value: 0%); details: topical, 120 h
# [7] = test system: Cydia pomonella; assay: Insecticidal activity against Cydia pomonella (codling moth) at 16 mg/kg assessed as growth regulation measured as number of head capsules of larvae after 10 days of continuous exposure Rvb = (1.5 +/- 0.2%)
# [8] = test system: Cydia pomonella; assay: Insecticidal activity against Cydia pomonella (codling moth) at 20 mg/kg assessed as growth regulation measured as number of head capsules of larvae after 5 days of continuous exposure (reference value: 0.2 +/- 0.2%)
# [9] = test system: Cydia pomonella; assay: Antifeedant activity against Cydia pomonella (codling moth) at 4 mg/kg diet topically measured after 10 days of continuous exposure (reference value: 6.7 +/- 6.7%)
# [10] = test system: Cydia pomonella; assay: Insecticidal activity against Cydia pomonella (codling moth) at 18 mg/kg assessed as growth regulation measured as number of head capsules of larvae after 10 days of continuous exposure Rvb = (1.5 +/- 0.2%)
# [11] = test system: Cydia pomonella; assay: Antifeedant activity against Cydia pomonella (codling moth) at 6 mg/kg diet topically measured after 10 days of continuous exposure (reference value: 6.7 +/- 6.7%)
# [12] = test system: Cydia pomonella; assay: Antifeedant activity against Cydia pomonella (codling moth) at 12 mg/kg diet topically measured after 10 days of continuous exposure (reference value: 6.7 +/- 6.7%)
# [13] = test system: Cydia pomonella; assay: Insecticidal activity against Cydia pomonella (codling moth) assessed as mortality at 2 mg/kg diet topically measured after 5 days of continuous exposure (reference value: 0%); details: topical, 120 h
# [14] = test system: Cydia pomonella; assay: Antifeedant activity against Cydia pomonella (codling moth) at 8 mg/kg diet topically measured after 5 days of continuous exposure (reference value: 6.7 +/- 6.7%)
# [15] = test system: Cydia pomonella; assay: Antifeedant activity against Cydia pomonella (codling moth) at 18 mg/kg diet topically measured after 10 days of continuous exposure (reference value: 6.7 +/- 6.7%)
# [16] = test system: Cydia pomonella; assay: Antifeedant activity against Cydia pomonella (codling moth) at 12 mg/kg diet topically measured after 5 days of continuous exposure (reference value: 6.7 +/- 6.7%)
# [17] = test system: Cydia pomonella; assay: Antifeedant activity against Cydia pomonella (codling moth) at 18 mg/kg diet topically measured after 5 days of continuous exposure (reference value: 6.7 +/- 6.7%)
# [18] = test system: Cydia pomonella; assay: Insecticidal activity against Cydia pomonella (codling moth) at 6 mg/kg assessed as growth regulation measured as number of head capsules of larvae after 10 days of continuous exposure Rvb = (1.5 +/- 0.2%)
# [19] = test system: Cydia pomonella; assay: Insecticidal activity against Cydia pomonella (codling moth) assessed as mortality at 2 mg/kg diet topically measured after 10 days of continuous exposure (reference value: 3.3 +/- 3.3%); details: topical, 240 h
# [20] = test system: Cydia pomonella; assay: Antifeedant activity against Cydia pomonella (codling moth) at 4 mg/kg diet topically measured after 5 days of continuous exposure (reference value: 6.7 +/- 6.7%)
# [21] = test system: Cydia pomonella; assay: Insecticidal activity against Cydia pomonella (codling moth) at 18 mg/kg assessed as growth regulation measured as number of head capsules of larvae after 5 days of continuous exposure (reference value: 0.2 +/- 0.2%)
# [22] = test system: Cydia pomonella; assay: Insecticidal activity against Cydia pomonella (codling moth) at 4 mg/kg assessed as growth regulation measured as number of head capsules of larvae after 10 days of continuous exposure Rvb = (1.5 +/- 0.2%)
# [23] = test system: Cydia pomonella; assay: Antifeedant activity against Cydia pomonella (codling moth) at 16 mg/kg diet topically measured after 10 days of continuous exposure (reference value: 6.7 +/- 6.7%)
# [24] = test system: Cydia pomonella; assay: Insecticidal activity against Cydia pomonella (codling moth) at 8 mg/kg assessed as growth regulation measured as number of head capsules of larvae after 5 days of continuous exposure (reference value: 0.2 +/- 0.2%)
# [25] = test system: Cydia pomonella; assay: Insecticidal activity against Cydia pomonella (codling moth) assessed as mortality at 8 mg/kg diet topically measured after 5 days of continuous exposure (reference value: 0%); details: topical, 120 h
# [26] = test system: Cydia pomonella; assay: Insecticidal activity against Cydia pomonella (codling moth) assessed as mortality at 8 mg/kg diet topically measured after 10 days of continuous exposure (reference value: 3.3 +/- 3.3%); details: topical, 240 h
# [27] = test system: Cydia pomonella; assay: Insecticidal activity against Cydia pomonella (codling moth) assessed as mortality at 18 mg/kg diet topically measured after 5 days of continuous exposure (reference value: 0%); details: topical, 120 h
# [28] = test system: Cydia pomonella; assay: Insecticidal activity against Cydia pomonella (codling moth) assessed as mortality at 16 mg/kg diet topically measured after 5 days of continuous exposure (reference value: 0%); details: topical, 120 h
# [29] = test system: Cydia pomonella; assay: Insecticidal activity against Cydia pomonella (codling moth) assessed as mortality at 1 mg/kg diet topically measured after 5 days of continuous exposure (reference value: 0%); details: topical, 120 h
# [30] = test system: Cydia pomonella; assay: Insecticidal activity against Cydia pomonella (codling moth) at 16 mg/kg assessed as growth regulation measured as number of head capsules of larvae after 5 days of continuous exposure (reference value: 0.2 +/- 0.2%)
# [31] = test system: Cydia pomonella; assay: Insecticidal activity against Cydia pomonella (codling moth) assessed as mortality at 6 mg/kg diet topically measured after 5 days of continuous exposure (reference value: 0%); details: topical, 120 h
# [32] = test system: Cydia pomonella; assay: Insecticidal activity against Cydia pomonella (codling moth) assessed as mortality at 12 mg/kg diet topically measured after 5 days of continuous exposure (reference value: 0%); details: topical, 120 h
# [33] = test system: Cydia pomonella; assay: Antifeedant activity against Cydia pomonella (codling moth) at 16 mg/kg diet topically measured after 5 days of continuous exposure (reference value: 6.7 +/- 6.7%)
# [34] = test system: Cydia pomonella; assay: Antifeedant activity against Cydia pomonella (codling moth) at 8 mg/kg diet topically measured after 10 days of continuous exposure (reference value: 6.7 +/- 6.7%)
# [35] = test system: Cydia pomonella; assay: Insecticidal activity against Cydia pomonella (codling moth) assessed as mortality at 4 mg/kg diet topically measured after 5 days of continuous exposure (reference value: 0%); details: topical, 120 h
# [36] = test system: Cydia pomonella; assay: Antifeedant activity against Cydia pomonella (codling moth) at 20 mg/kg diet topically measured after 5 days of continuous exposure (reference value: 6.7 +/- 6.7%)
compound,measurement,setting,value
CC1=C(O)C(=O)C=C2C1=CC=C1[C@@]2(C)CC[C@@]2(C)[C@@H]3C[C@](C)(O)C(=O)C[C@]3(C)CC[C@]12C [20ALPHA-HYDROXYTINGENONE],Activity,[1],3.3%
same,mortality at 12 mg/kg,[2],60%
same,Activity,[3],83.3%
same,mortality at 20 mg/kg,[4],100%
same,Activity,[5],0.1
same,mortality at 20 mg/kg,[6],100%
same,Activity,[7],0
same,Activity,[8],0
same,Activity,[9],33.3%
same,Activity,[10],0
same,Activity,[11],53.3%
same,Activity,[12],90%
same,mortality at 2 mg/kg,[13],0%
same,Activity,[14],100%
same,Activity,[15],100%
same,Activity,[16],96.7%
same,Activity,[17],100%
same,Activity,[18],0.6
same,mortality at 2 mg/kg,[19],0%
same,Activity,[20],46.7%
same,Activity,[21],0
same,Activity,[22],0.6
same,Activity,[23],100%
same,Activity,[24],0
same,mortality at 8 mg/kg,[25],3.3%
same,mortality at 8 mg/kg,[26],43.3%
same,mortality at 18 mg/kg,[27],86.7%
same,mortality at 16 mg/kg,[28],60%
same,mortality at 1 mg/kg,[29],3.3%
same,Activity,[30],0
same,mortality at 6 mg/kg,[31],10%
same,mortality at 12 mg/kg,[32],53.3%
same,Activity,[33],100%
same,Activity,[34],80%
same,mortality at 4 mg/kg,[35],6.7%
same,Activity,[36],100%
